From patent publication US5922891A, “2-substituted 1,8-dihydroxy-9(10H)-anthracenone pharmaceuticals” (priority 1997, dated 1999)

How the values were obtained:
[1] = Deoxyribose degradation as a measure of hydroxyl radical formation; type: biochemical; conditions: 75 μM test compound; controls < 0.1
[2] = Inhibition of AAPH-induced lipid peroxidation in bovine brain phospholipid liposomes; type: biochemical; conditions: AAPH-induced; bovine brain phospholipid liposomes; N = 3 or more; read-out: LPO IC50 (inhibition of lipid peroxidation)
Procedure: Phospholipids were prepared essentially as described by Gutteridge, J. M. C., (Anal. Biochem., 82: 76-82 (1977)). Bovine brain tissue was cooled on ice, freed from blood vessels and washed repeatedly with 0.15 M NaCl, pH 7.4. The tissue was cut into pieces and then macerated with an ultra-turrax, passed through a fine-meshed sieve, and extracted four times with four times the volume of acetone. The extraction mixture was filtered by suction to remove the acetone, the residue dried under vacuum, and then repeatedly extracted with petroleum ether (40-60) using twice the volume of the original brain homogenate. The combined extracts were filtered, dried at 45° C., and dissolved in ether (one fifth the original brain volume). The mixture was treated with five times the volume of acetone, and the resulting precipitate was collected by suction-filtration, dried and stored under N2 at -20° C. in the dark. Bovine brain phospholipids were weighed into glass tubes and shaken in a vortex mixer (Heidolph) in the presence of five small glass beads (.phi. 4 mm) for 1 minute. The phospholipids were suspended in 0.15 M NaCl, pH 7.4, to a final concentration of 5 mg/ml. The mixture was purged with N2 for 1 minute and vigorously dispersed in a vortex mixer for 5 minutes. The liposomes were allowed to swell for 1 hour at 4° C., and vesicles with a mean size of 1-10 μm were obtained according to the method of Bangham, et al., (J. Mol. Biol., 13:238-252 (1965). The liposomes were stimulated with the azo initiator 2 2'-azobis (2-amidinopropane) hydrochloride according to the method of Gutteridge, J. M. C., (Anal. Biochem. 82:76-82 (1977)).
The following reagents were added to the glass tubes containing stimulating bovine brain phospholipid piposomes in the order and at the final concentrations listed: 0.3 ml HK2 PO4 --KOH buffer, pH 7.4 (30 mM), 0.29 ml double distilled H2 O, 0.2 ml liposomes (1 mg/ml), 0.2 ml FeCl3.H2 O (0.1 mM), 0.01 ml 2-substituted anthracenone compound of the invention (variable concentrations).
Appropriate blanks and controls using the vehicle (acetone) were conducted. The final reaction volumes were standardized to 1.0 ml. The reaction mixtures were incubated for 1 hour at 37° C. in a shaking water bath. […] of 20% (w/v) BHT, 0.5 ml 25% (w/v) HCl and 0.5 ml of 1% 2-thiobarbituric acid were added and the samples were heated at 100° C. for 15 minutes and then cooled in an ice bath (5 minutes). 2 ml of 1-butanol were added and the mixtures were vigorously shaken in a vortex mixer (Heidolph) for 15 seconds. The organic layer was separated by centrifugation at 3000 rpm (15 minutes) and absorbance at 532 nm was measured against butanol.

| SMILES | DD (deoxyribose degradation, malondialdehyde released) [1] | IC50 [2] [µM] |
| --- | --- | --- |
| COC(=O)CCCCc1ccc2c(c1O)C(=O)c1c(O)cccc1C2 [IVB, Methyl 5-(9,10-Dihydro-1,8-dihydroxy-9-oxo-2-anthracene)pentanoate] | 0.62 ± 0.03 μmol of MDA/mmol | 62 |
| COC(=O)CCCCCc1ccc2c(c1O)C(=O)c1c(O)cccc1C2 [VB, Methyl 6-(9,10-Dihydro-1,8-dihydroxy-9-oxo-2-anthracene) hexaonate] | 0.13 ± 0.02 μmol of MDA/mmol | 120 |
| COC(=O)C(c1ccc2c(c1O)C(=O)c1c(O)cccc1C2)C(C)C (centres unmarked) [VIIIB, Methyl 2-(9,10-Dihydro-1,8-dihydroxy-9-oxo-2-anthracene)-3-methylbutanoate] | 0.54 ± 0.01 μmol of MDA/mmol | 165 |
| CC(C(=O)N(C)O)c1ccc2c(c1O)C(=O)c1c(O)cccc1C2 (centres unmarked) [VIID, N-Hydroxy-N-methyl-2-(9,10-dihydro-1,8-dihydroxy-9-oxo-2-anthracene)propionamide] | 1.57 ± 0.16 μmol of MDA/mmol | 8 |
